Experimental data published in patent US7812143B2, “Biomarkers for cancer treatment” (Memorial Sloan-Kettering Cancer Center, priority 2006, dated 2010).

Columns and labels:
[1] = test system: SkMel 5 cells; assay: Quantitative RT-PCR of relative mRNA levels after MEK inhibitor; type: cell-based; settings: 50 nM; 2, 4, 8 and 24 hrs versus time 0; SkMel 5 (V600E BRAF)
Experimental: Quantitative RT-PCR was used to determine relative levels of mRNA in cells as a function of time following exposure to the MEK inhibitor (PD0325901 50 nM). SkMel 5 cells were treated with MEK inhibitor (PD0325901 50 nM) for the times indicated (2 hrs, 4 hrs, 8 hrs, and 24 hrs). Following total RNA extraction and an in vitro reverse transcription step, synthesized cDNA was used in a PCR reaction containing pre-designed probe-primer sets purchased from Applied Biosystems and run on an ABI 7500 RT-PCR machine, using software supplied by Applied Biosystems. Relative levels of mRNA compared to the reference sample (time 0) were determined using the ΔΔCT calculation, using HPRT as a housekeeping gene for normalization. In brief, each gene for each sample is assigned a value based on the number of PCR amplification cycles required for the amplified gene product to cross a detection threshold (i.e., a gene detectable at 25 amplification cycles is present in greater starting quantity than a gene product detectable at 30 cycles). The cycle value for each sample for the gene of interest is subtracted from the cycle value for a reference sample (untreated, or time 0), and this value is the delta CT for the gene of interest. […] This is the delta CT for the housekeeping gene. The delta CT (housekeeping gene) is subtracted from the delta CT (gene of interest), and this is the delta delta CT. […]

[2] = test system: SkMel 28 cells; assay: Affymetrix U133A 2.0 gene expression time course after MEK inhibitor; type: cell-based; settings: 50 nM
Experimental: SkMel 28 cells (a melanoma cell line with the V600E BRAF mutation) were treated with the MEK inhibitor, PD0325901 (50 nM), for 2, 8, or 24 hours, or no treatment at all (=time 0 hours). Total cellular RNA was analyzed using an Affymetrix U133A 2.0 platform. Pairwise comparisons of gene expression at each individual time point to reference sample (time 0 hours) were performed, and genes were selected using a threshold of two-fold or greater change in either direction. […] Thus, genes which changed greater than or equal to two-fold in either direction in response to PD0325901 compared to control were identified at three time points following MEK inhibition. All genes were assigned to a functional class based on biological process, according to Gene Ontology (GO) classification (FIG. 2). The number of genes changing in each functional classification was assigned a p-value based on the significance of the number of genes changing given the total number of genes changed at that time point, compared to the total number of genes in the GO functional class, and the total number of genes on the chip. An enrichment score was assigned to each functional class, and was defined as the −log 10(p-value).

[3] = test system: V600E BRAF tumor cell lines; assay: Treatment of B-RAF mutant tumor cell lines and xenograft models with MEK inhibitors (cyclin D, RB, cell cycle, proliferation); type: cell-based; settings: tumor cell lines and xenograft models with activating B-RAF mutation (V600E BRAF)
Source text: Eleven cells lines, including five BRAF mutants, are characterized by their tissue of lineage and mechanism of MAPK activation, were used for the experiments described herein, and are listed in Table 2.

[4] = test system: V600E B-RAF xenograft models of melanoma and colon carcinoma; assay: Tumor growth in V600E B-RAF xenograft models; settings: for tumor growth: compared to vehicle-treated mice, several V600E B-RAF xenograft models of melanoma and colon carcinoma; for cyclin D and Ki-67 in tumor samples: western blot and immunohistochemistry of xenograft tumor samples
[5] = test system: HER2/EGFR (WT BRAF) tumors; assay: Response of HER2/EGFR (WT BRAF) tumors to MEK inhibition, in vitro assays and xenograft models; type: cell-based; settings: for effectiveness at expected target, phosphorylated MAPK: WT BRAF group compared with V600E BRAF tumors; for sensitivity of tumors with high MAPK activity under the control of activated receptors: in vitro assays and xenograft models
Source text: Eleven cells lines, including five BRAF mutants, are characterized by their tissue of lineage and mechanism of MAPK activation, were used for the experiments described herein, and are listed in Table 2. All the cell lines have high levels of MAPK activity.

[6] = test system: panel of V600E BRAF cell lines; assay: Microarray (SAM) of gene expression, MEK-inhibited versus DMSO control; type: cell-based; settings: 50 nM, 8 hours, false discovery rate 9%
Experimental: Mean expression of genes was determined for a panel of V600E BRAF cell lines in each of two conditions, MEK-inhibited (PD0325901 50 nM) or DMSO control, both at 8 hours. The panel of V600E BRAF cell lines included 5 melanoma cell lines (SkMel 1, SkMel 5, SkMel 19, SkMel 28, and MALME 3M) and two colorectal carcinoma cell lines (Colo205 and HT29).
Significance analysis of microarray (SAM) methods were used to determine the significance of difference between the two groups of genes (using a false discovery rate of 9%). […] Expression of the genes was also presented as a heatmap representation (FIG. 3B).

[7] = test system: SkMel 5, SkMel 19, and Colo205; assay: Western blot of relative protein expression after MEK inhibitor; type: cell-based; settings: 50 nM, as a function of time; three V600E BRAF cell lines
Experimental: Following protein isolation using NP40 1% lysis buffer, Western blot analysis was used to determine relative protein expression in cells as a function of time following exposure to MEK inhibitor (PD0325901 50 nM). […] For the Western Blot analysis, DUSP6 antibody (SantaCruz (#8598)), and SPRY2 antibody (Upstate Cell Signaling Solutions).

O=C(NOC[C@H](O)CO)c1ccc(F)c(F)c1Nc1ccc(I)cc1F [PD0325901]
relative mRNA levels of DUSP6, SPRY2, ETV1, ETV5, and CCND1 [1]: Decrease in mRNA levels | number of genes changing two-fold or greater in either direction ([2]; 2 hours versus time 0): 91 genes | number of genes changing two-fold or greater in either direction ([2]; 8 hours versus time 0): 327 genes | number of genes changing two-fold or greater in either direction ([2]; 24 hours versus time 0): 1191 genes | cell cycle [3]: G1 arrest | cyclin D levels [3]: decline in cyclin D levels | phosphorylation of RB [3]: hypophosphorylation of RB | proliferation [3]: inhibition of proliferation | tumor growth [4]: Tumor growth delay was achieved | cyclin D and Ki-67 in tumor samples [4]: decline in both cyclin D and Ki-67 | effectiveness at expected target, phosphorylated MAPK [5]: not measurably different | sensitivity of tumors with high MAPK activity under the control of activated receptors [5]: resistant | genes downregulated [6]: 31 genes | genes upregulated [6]: 4 genes | genes which change significantly in either direction ([6]; 45 probe sets): 35 genes | relative protein expression of DUSP6 and SPRY2 [7]: decrease in protein expression

O=C(NOCC1CC1)c1ccc(F)c(F)c1Nc1ccc(I)cc1Cl [CI-1040]
cell cycle [3]: G1 arrest | cyclin D levels [3]: decline in cyclin D levels | phosphorylation of RB [3]: hypophosphorylation of RB | proliferation [3]: inhibition of proliferation | tumor growth [4]: Tumor growth delay was achieved | cyclin D and Ki-67 in tumor samples [4]: decline in both cyclin D and Ki-67 | effectiveness at expected target, phosphorylated MAPK [5]: not measurably different | sensitivity of tumors with high MAPK activity under the control of activated receptors [5]: resistant
